The test system of experiment [1] is diet-induced obese (DIO) mice. The experiment is described as follows: Chronic treatment in diet-induced obese mice (body weight, body composition, ITT, glucose). It is filed as in vivo, mouse. The following applies: for AUC of glucose during ITT: mean±SEM, vehicle 12812.50±750.35. The method, then:
The aim of the study was to determine whether the compound AOL, administered daily at the doses of 5 mg/kg and 10 mg/kg for up to five weeks by intraperitoneal (i.p.) daily administration in diet-induced obese (DIO) mice fed with a high-fat diet (HFD), modifies food intake, body weight, adiposity and glucose metabolism.
Mice were fed ad libitum with a HFD (60% of calories from fat, mostly lard) for twelve weeks before the pharmacological study begun. Animals received AOL or its vehicle by intraperitoneal (i.p.) administration and were maintained on HFD for the length of the study. Food intake and body weight were measured daily and recorded for up to three consecutive weeks.
Thirty 7-weeks-old male C57/B16J mice arrived to the laboratory on 25 Feb. 2016 and underwent a first in vivo body composition analysis (Echo MRI 900, EchoMRI Systems) after 1 week of adaptation to the experimental housing room. After this first MRI analysis, animals were fed a high-fat diet (HFD) ad libitum for a period of twelve weeks. Thereafter, they underwent a second MRI analysis and were distributed into 3 experimental groups of equivalent body weight and body composition.
Once the pharmacological treatment started (day 1), food intake (FI) and body weight (BW) were measured daily before the dark phase in animals housed in their home cage. Spillage of food was checked daily. The food consumed was calculated by subtracting the food left in the hoppers from the initial pre-weighted amount. FI and BW were measured for three consecutive weeks. Afterwards animals underwent a third MRI analysis in order to observe potential effects of the treatment onto the body composition (changes in fat and lean mass), followed by a glucose tolerance test (GTT) and an insulin tolerance test (ITT). Mice received daily i.p. administration of AOL or its vehicle for a total length of five weeks, until they were sacrificed.
A nuclear echo magnetic resonance imaging whole-body composition analyzer (Echo MRI 900; EchoMedical Systems) was used to repeatedly assess body fat and lean mass in conscious mice.
Animals were injected i.p. with 1.5 g/kg of D-Glucose (Sigma-Aldrich) for the GTT or with 0.5 U/kg of insulin (Humulin, Lilly, France) for the ITT. For the GTT and the ITT, animals were fasted overnight. The tests were conducted the following morning. Blood samples were taken from the tail vein at different time points (0, 15, 30, 60, 90 and 120 minutes after the i.p. administration of glucose or insulin) and glucose concentration was measured using glucose sticks (OneTouch Vita, Lifescan France, Issy les Moulineaux, France).
At sacrifice, blood samples were collected, blood glucose was rapidly assessed using glucose sticks and blood samples were then centrifuged at 3000 rpm for 15 minutes. The obtained plasma was stored at −80° C. for subsequent measurement of insulin, which was carried out by performing an ELISA (kit from Mercodia, Uppsala, Sweden), according to the manufacturer's instructions.

The test system of experiment [2] is chronic hypoxic rats and monocrotaline-treated rats. The experiment is described as follows: Pulmonary hypertension rat models (chronic hypoxia, monocrotaline). It is filed as in vivo. On the procedure: Male Wistar rats (300-400 g) were separated into 3 groups and used 4 weeks later: • the first group (control or normoxic rats—N rats) was housed in ambient room air; • the second group (chronic hypoxic rats—CH rats) was exposed to chronic hypoxia for 3 weeks in a hypobaric chamber (50 kPa); and • the third group (MCT rats) was injected with a single intraperitoneal dose of monocrotaline at a dose of 60 mg/kg. MCT (Sigma, St Quentin Fallavier, France) was dissolved in an equal volume of HCl (1 M) and NaOH (1 M).
In each group, some animals were treated with AOL (Sulfarlem, EG Labo Eurogenerics. Crushed tablets mixed with food, fed ad libitum) and some other animals were untreated. Eaten food was weighed every day to estimate the AOL dose administered. 10 mg/kg/day was thus administered during the 3 weeks of experiment for the second and third groups.
Pulmonary hypertension was assessed by measuring both the mean pulmonary arterial pressure (mPAP) and right ventricle hypertrophy. To measure PAP, N, CH and MCT rats were anesthetized with pentobarbital sodium (Centravet) by intraperitoneal injection (60 mg/kg) and mPAP was measured, in closed-chest rats, through a catheter inserted in the right jugular vein, then through the right atria and the right ventricle into the pulmonary artery, and attached to a Baxter Uniflow gauge pressure transducer. Right ventricle hypertrophy was estimated by the ratio of right ventricle (RV) to left ventricle plus septum (LV+S) weight (Fulton index).
Pulmonary arteries (PA) remodeling was assessed by measuring the percentage of the PA medial thickness from sections of paraffin-embedded lung. Lung sections were first stained with hematoxylin and eosin (VWR) according to common histological procedure.

The values below come from patent US11484529B2, “Desmethylanethole trithione derivatives for the treatment of diseases linked to mitochondrial reactive oxygen species (ROS) production” (OP2 Drugs, priority 2017, dated 2022).

Consider `COc1ccc(-c2cc(=S)ss2)cc1` [AOL, 5-(4-methoxyphenyl)-3H-1,2-dithiole-3-thione], for which the “effect on body weight” value in experiment [1] (5 and 10 mg/kg i.p. daily, HFD, three weeks) is “did not have a significant effect”. For the same compound, the “AUC of glucose during ITT” value in experiment [1] (AOL 5 mg/kg) came out at 15006.56±1139.69; in experiment [1] (AOL 10 mg/kg) it was 18168.33±1562.90. In experiment [1] (AOL 10 mg/kg), the “action of insulin on circulating glucose levels during an ITT” value is listed as “significantly blunted the action of insulin”. Moreover, the blood glucose levels entry in experiment [1] (after five weeks of treatment, 2-hour fasted mice) is recorded as “tended to decrease blood glucose levels”. Besides, in experiment [1] (after three weeks of chronic administration), the lean mass result is on record as “did not have any effect on lean mass”. The fat mass result in experiment [1] (after three weeks of chronic administration, p=0.13) was “tended to reduce fat mass”. Further, the “body weight and food intake” value in experiment [1] (chronic daily administration, data not shown) is “tended to decrease body weight and food intake”. Besides, in experiment [2] (10 mg/kg/day in food), the “Fulton index (right ventricular hypertrophy)” value was “no effect on the Fulton index”. Moreover, the “reduction of pulmonary arteries diameter (PA remodeling)” value in experiment [2] (CH rats, 10 mg/kg/day) is reported as 30%. The “mean pulmonary arterial pressure” value in experiment [2] (MCT rats, 10 mg/kg/day in food, 3 weeks) was “decreased in MCT rats”; in experiment [2] (normoxic (N) rats), “no significant effect on the control group”.
